Laboratory results published in US11725037B2, “Peptide dual agonists of GIPR and GLP2R” (University of Copenhagen, priority 2017, dated 2023).

Key:
[1] = tested on: mouse mesenchymal osteoblast precursor cell line KS483; test: Osteoblast differentiation assay: intracellular alkaline phosphatase activity (ALP) at day 8; format: cell-based; details: 1 μM, day 8, KS483 cells, mean±sem, n=6
Procedure: Aim: Testing the effects of 2 test compounds on differentiation and activity of osteoblasts in vitro in a preliminary set-up.
Method: One concentration of each test compound (1 μM) is tested. Effects on osteoblast differentiation are studied using a mouse mesenchymal osteoblast precursor cell line KS483. The cells are cultured on plastic surface in 96-well plates for 8 days, allowing them to differentiate into mature bone-forming osteoblasts. Baseline with vehicle • 1. Compound 3: Vehicle • 2. Compound 5: GIP-GLP-2 agonist 3 (SEQ ID NO:3) • 3. Compound 6: GIP-GLP-2 agonist 19 (SEQ ID NO:19)
In osteoblast differentiation assay: Intracellular alkaline phosphatase activity (ALP) at day 8 as an index of the number of mature osteoblasts formed.

human GIP receptor = biological target: T1, human GIP receptor (Homo sapiens, UniProt P48546); test: cAMP accumulation assay (HitHunter cAMP XS) in transiently transfected COS-7 cells expressing the human GIP receptor; format: cell-based; details: for Emax at 10 µM: COS-7, read-out: Emax (10 μM), GIP receptor; for EC50: logEC50, GIP receptor, log value, cAMP, COS-7
T1 construct: host or cells: COS-7 (transient, calcium phosphate; pCMV-Script vector)
T1 sequence (P48546 22-466): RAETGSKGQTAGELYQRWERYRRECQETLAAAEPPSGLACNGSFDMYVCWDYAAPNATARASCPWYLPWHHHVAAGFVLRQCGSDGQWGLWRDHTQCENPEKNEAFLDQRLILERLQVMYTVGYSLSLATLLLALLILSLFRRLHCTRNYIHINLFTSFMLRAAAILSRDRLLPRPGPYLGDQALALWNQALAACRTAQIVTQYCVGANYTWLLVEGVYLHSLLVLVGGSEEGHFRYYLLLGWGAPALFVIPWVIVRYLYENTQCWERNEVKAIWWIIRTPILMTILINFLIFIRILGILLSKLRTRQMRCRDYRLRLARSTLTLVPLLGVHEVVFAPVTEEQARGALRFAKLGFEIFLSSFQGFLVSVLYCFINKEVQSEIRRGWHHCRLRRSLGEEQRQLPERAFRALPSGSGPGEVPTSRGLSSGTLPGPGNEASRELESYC
Procedure: (§1) The day after, the cells were washed twice with Hepes buffered saline (HBS) buffer and incubated with HBS and 1 mM 3-isobutyl-1-methylxanthine (IBMX) for 30 min at 37° C. Ligands were added and incubated for 30 min at 37° C. The HitHunter™ cAMP XS assay (DiscoveRx) was carried out according to the manufacturer's instructions.

human GLP-2 receptor = biological target: T2, human GLP-2 receptor (Homo sapiens, UniProt O95838); test: cAMP accumulation assay (HitHunter cAMP XS) in transiently transfected COS-7 cells expressing the human GLP-2 receptor; format: cell-based; details: for Emax at 10 µM: COS-7, read-out: Emax (10 μM), GLP-2 receptor; for logEC50, GLP-2 receptor: log value
T2 construct: host or cells: COS-7 (transient, calcium phosphate; pCMV-Script vector)
T2 sequence (O95838 1-553): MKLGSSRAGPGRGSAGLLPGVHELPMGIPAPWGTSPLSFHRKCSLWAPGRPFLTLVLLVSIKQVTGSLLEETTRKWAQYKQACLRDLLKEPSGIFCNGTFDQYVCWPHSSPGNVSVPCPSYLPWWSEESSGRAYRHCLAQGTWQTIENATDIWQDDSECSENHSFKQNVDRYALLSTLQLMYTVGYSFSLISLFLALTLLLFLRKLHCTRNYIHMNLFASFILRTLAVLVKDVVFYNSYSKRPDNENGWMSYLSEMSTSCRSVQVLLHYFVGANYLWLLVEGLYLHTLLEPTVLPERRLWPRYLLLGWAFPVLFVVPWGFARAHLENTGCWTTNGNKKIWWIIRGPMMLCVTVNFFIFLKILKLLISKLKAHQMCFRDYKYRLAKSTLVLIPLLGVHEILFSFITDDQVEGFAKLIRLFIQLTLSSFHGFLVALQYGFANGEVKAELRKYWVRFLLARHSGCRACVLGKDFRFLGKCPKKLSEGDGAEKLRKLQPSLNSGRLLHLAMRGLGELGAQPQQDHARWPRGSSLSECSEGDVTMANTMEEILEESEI
Procedure: as §1

[2] = tested on: bone resorption (serum C-terminal cross-linking telopeptide of type I collagen, CTX); test: Human study 1: bone resorption by serum CTX after subcutaneous injection of GIP or GLP-2; format: in vivo
Procedure: Method: Eight healthy young men were enrolled. […] Participants arrived in the morning (fasted overnight) and received the injection around 8.30 a.m. Blood samples were collected before (−25 and −10 min) and every 30 minutes after injection (30, 60, 90, 120, 180 and 240 min). After last participant's last visit, bone resorption was determined by measurements of serum C-terminal cross-linking telopeptide of type I collagen (CTX; IDS Immunodiagnostic Systems GmbH, Frankfurt am Main, Germany)

| SMILES | ALP activity compared to vehicle [1] [%] | Emax at 10 µM (human GIP receptor) [%] | potency (and efficacy) on the GIP receptor compared with native GIP, in words (human GIP receptor; Table 1) | fold (fold change of native GIP), GIP receptor (human GIP receptor; Table 1, EC50 relative to native GIP) [fold] | EC50 (human GIP receptor; Table 1) [nM] | Emax at 10 µM (human GLP-2 receptor) [%] | fold (fold change of native GLP-2), GLP-2 receptor (human GLP-2 receptor; Table 1, EC50 relative to native GLP-2) [fold] | EC50 (human GLP-2 receptor; logEC50, GLP-2 receptor, Table 1, cAMP, COS-7) [nM] | potency and efficacy on the GLP-2R compared with native GLP-2, in words (human GLP-2 receptor; Table 1) | reduction in bone resorption (CTX) ([2]; 200 μg GIP and 800 μg GLP-2, each alone, s.c., restated in Example 4) [%] | bone resorption (CTX), maximum effect, % of base line ([2]; human GIP 200 μg s.c., healthy young men, 90 min after injection) | logEC50, GLP-2 receptor (human GLP-2 receptor; Table 1, cAMP, COS-7) | logEC50, GLP-2 receptor (human GLP-2 receptor; Table 2, cAMP, COS-7) |
| --- | --- | --- | --- | --- | --- | --- | --- | --- | --- | --- | --- | --- | --- |
| CC[C@H](C)[C@H](NC(=O)[C@H](Cc1ccccc1)NC(=O)[C@H](CC(=O)O)NC(=O)[C@H](CCCNC(=N)N)NC(=O)[C@H](C)NC(=O)[C@H](C)NC(=O)[C@H](CC(C)C)NC(=O)[C@H](CC(N)=O)NC(=O)[C@H](CC(=O)O)NC(=O)[C@H](CC(C)C)NC(=O)[C@@H](NC(=O)[C@@H](NC(=O)[C@H](CO)NC(=O)[C@H](Cc1ccc(O)cc1)NC(=O)[C@H](CC(=O)O)NC(=O)[C@H](CO)NC(=O)[C@@H](NC(=O)[C@H](Cc1ccccc1)NC(=O)[C@@H](NC(=O)CNC(=O)[C@H](CC(=O)O)NC(=O)[C@H](C)NC(=O)[C@@H](N)Cc1c[nH]cn1)[C@@H](C)O)[C@@H](C)CC)[C@@H](C)O)[C@@H](C)CC)C(=O)N[C@@H](CC(N)=O)C(=O)N[C@@H](Cc1c[nH]c2ccccc12)C(=O)N[C@@H](CC(C)C)C(=O)N[C@H](C(=O)N[C@@H](CCC(N)=O)C(=O)N[C@H](C(=O)N[C@@H](CCCCN)C(=O)N[C@H](C(=O)N[C@H](C(=O)N[C@@H](CC(=O)O)C(=O)O)[C@@H](C)O)[C@@H](C)CC)[C@@H](C)O)[C@@H](C)CC [Co-agonist 3] | 112±5.6 | 100 | same potency as native GIP(1-42) | 1.2 | 0.107 | 100 | 18 | 21.4 | – | – | – | – | – |
| CC[C@H](C)[C@H](NC(=O)[C@H](Cc1ccccc1)NC(=O)[C@H](CC(=O)O)NC(=O)[C@H](CCCNC(=N)N)NC(=O)[C@H](C)NC(=O)[C@H](C)NC(=O)[C@H](CC(C)C)NC(=O)[C@H](CC(N)=O)NC(=O)[C@H](CC(=O)O)NC(=O)[C@H](CC(C)C)NC(=O)[C@@H](NC(=O)[C@@H](NC(=O)[C@H](CO)NC(=O)[C@H](Cc1ccc(O)cc1)NC(=O)[C@H](CC(=O)O)NC(=O)[C@H](CO)NC(=O)[C@@H](NC(=O)[C@H](Cc1ccccc1)NC(=O)[C@@H](NC(=O)CNC(=O)[C@H](CC(=O)O)NC(=O)[C@H](C)NC(=O)[C@@H](N)Cc1c[nH]cn1)[C@@H](C)O)[C@@H](C)CC)[C@@H](C)O)[C@@H](C)CC)C(=O)N[C@@H](CC(N)=O)C(=O)N[C@@H](Cc1c[nH]c2ccccc12)C(=O)N[C@@H](CC(C)C)C(=O)N[C@H](C(=O)N[C@@H](CCC(N)=O)C(=O)N[C@H](C(=O)N[C@@H](CCCCN)C(=O)NCC(=O)N[C@@H](CCCCN)C(=O)N[C@@H](CCCCN)C(=O)O)[C@@H](C)O)[C@@H](C)CC [Co-agonist 19] | 115±8.9 | 93 | almost the same potency and efficacy | – | 0.251 | 91 | – | – | almost the same potency and efficacy | – | – | – | – |
| CC[C@H](C)[C@H](NC(=O)[C@H](CO)NC(=O)[C@H](Cc1ccc(O)cc1)NC(=O)[C@H](CC(=O)O)NC(=O)[C@H](CO)NC(=O)[C@@H](NC(=O)[C@H](Cc1ccccc1)NC(=O)[C@@H](NC(=O)CNC(=O)[C@H](CCC(=O)O)NC(=O)[C@H](C)NC(=O)[C@@H](N)Cc1ccc(O)cc1)[C@@H](C)O)[C@@H](C)CC)C(=O)N[C@@H](C)C(=O)N[C@@H](CCSC)C(=O)N[C@@H](CC(=O)O)C(=O)N[C@@H](CCCCN)C(=O)N[C@H](C(=O)N[C@@H](Cc1c[nH]cn1)C(=O)N[C@@H](CCC(N)=O)C(=O)N[C@@H](CCC(N)=O)C(=O)N[C@@H](CC(=O)O)C(=O)N[C@@H](Cc1ccccc1)C(=O)N[C@H](C(=O)N[C@@H](CC(N)=O)C(=O)N[C@@H](Cc1c[nH]c2ccccc12)C(=O)N[C@@H](CC(C)C)C(=O)N[C@@H](CC(C)C)C(=O)N[C@@H](C)C(=O)N[C@@H](CCC(N)=O)C(=O)N[C@@H](CCCCN)C(=O)NCC(=O)N[C@@H](CCCCN)C(=O)N[C@@H](CCCCN)C(=O)N[C@@H](CC(N)=O)C(=O)N[C@@H](CC(=O)O)C(=O)N[C@@H](Cc1c[nH]c2ccccc12)C(=O)N[C@@H](CCCCN)C(=O)N[C@@H](Cc1c[nH]cn1)C(=O)N[C@@H](CC(N)=O)C(=O)N[C@H](C(=O)N[C@H](C(=O)N[C@@H](CCC(N)=O)C(=O)O)[C@@H](C)O)[C@@H](C)CC)C(C)C)[C@@H](C)CC [GIP, reference compound] | – | – | – | – | – | – | – | – | – | ~50 | 56.2±11.2 % of base line | no activation | no activation |
